For 18 compounds, IC50 and CC50 results are on record in ChEMBL document CHEMBL5233229, “Recent advances in the development of ubiquitin-specific-processing protease 7 (USP7) inhibitors” (Eur J Med Chem, 2020).

Some results are limits rather than exact numbers.

Assay [1] deals with T1, Ubiquitin carboxyl-terminal hydrolase 7 (Homo sapiens, UniProt Q93009). The experiment in a line: Inhibition of human USP7 using UbA10 as substrate incubated for 10 mins by TR-FRET assay.
Assay [2] concerns the target T2, Ubiquitin carboxyl-terminal hydrolase 28 (Homo sapiens, UniProt Q96RU2).
T2 sequence (Q96RU2 whole entry): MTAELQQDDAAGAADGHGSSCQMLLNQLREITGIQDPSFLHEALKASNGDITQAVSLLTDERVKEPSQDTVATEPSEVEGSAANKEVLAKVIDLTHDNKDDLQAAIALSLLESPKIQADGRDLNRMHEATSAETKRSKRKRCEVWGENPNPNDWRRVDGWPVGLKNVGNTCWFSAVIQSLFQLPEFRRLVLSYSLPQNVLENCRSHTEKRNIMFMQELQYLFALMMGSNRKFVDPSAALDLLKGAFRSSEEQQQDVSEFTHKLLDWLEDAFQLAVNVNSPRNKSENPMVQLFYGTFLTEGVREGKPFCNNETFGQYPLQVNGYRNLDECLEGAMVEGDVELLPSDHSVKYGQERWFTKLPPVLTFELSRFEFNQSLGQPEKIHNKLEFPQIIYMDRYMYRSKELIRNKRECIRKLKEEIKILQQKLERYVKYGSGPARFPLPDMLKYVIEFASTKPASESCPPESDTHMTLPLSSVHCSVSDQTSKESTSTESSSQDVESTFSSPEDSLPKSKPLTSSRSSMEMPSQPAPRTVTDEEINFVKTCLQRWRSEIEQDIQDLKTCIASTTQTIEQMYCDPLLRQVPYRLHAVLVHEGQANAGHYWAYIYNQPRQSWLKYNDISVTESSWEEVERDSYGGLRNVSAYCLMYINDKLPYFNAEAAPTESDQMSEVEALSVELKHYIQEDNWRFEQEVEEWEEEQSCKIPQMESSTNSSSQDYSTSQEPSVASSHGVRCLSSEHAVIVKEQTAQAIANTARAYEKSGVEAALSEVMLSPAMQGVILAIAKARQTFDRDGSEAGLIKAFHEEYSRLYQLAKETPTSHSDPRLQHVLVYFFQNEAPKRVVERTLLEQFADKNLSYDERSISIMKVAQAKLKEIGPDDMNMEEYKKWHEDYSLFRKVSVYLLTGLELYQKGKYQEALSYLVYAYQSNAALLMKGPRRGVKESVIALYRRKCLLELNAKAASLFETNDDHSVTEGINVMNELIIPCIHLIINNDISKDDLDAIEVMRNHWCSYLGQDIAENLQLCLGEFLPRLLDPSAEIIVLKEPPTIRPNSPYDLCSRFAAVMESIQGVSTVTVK
The experiment in a line: Inhibition of USP28 (unknown origin) using […] as substrate by […] analysis.

Assay [3] addresses T1, Ubiquitin carboxyl-terminal hydrolase 7. Kind of assay: Inhibition of human USP7 using ubiquitin-Rho as substrate incubated for 1 hrs.
Assay [4] shares this target. The experiment in a line: Inhibition of human USP7 using ubiquitin-Rho110 as substrate incubated for 1 hrs.
Assay [5] addresses T3, Ubiquitin carboxyl-terminal hydrolase 2 (Homo sapiens, UniProt O75604).
T3 sequence (O75604 whole entry): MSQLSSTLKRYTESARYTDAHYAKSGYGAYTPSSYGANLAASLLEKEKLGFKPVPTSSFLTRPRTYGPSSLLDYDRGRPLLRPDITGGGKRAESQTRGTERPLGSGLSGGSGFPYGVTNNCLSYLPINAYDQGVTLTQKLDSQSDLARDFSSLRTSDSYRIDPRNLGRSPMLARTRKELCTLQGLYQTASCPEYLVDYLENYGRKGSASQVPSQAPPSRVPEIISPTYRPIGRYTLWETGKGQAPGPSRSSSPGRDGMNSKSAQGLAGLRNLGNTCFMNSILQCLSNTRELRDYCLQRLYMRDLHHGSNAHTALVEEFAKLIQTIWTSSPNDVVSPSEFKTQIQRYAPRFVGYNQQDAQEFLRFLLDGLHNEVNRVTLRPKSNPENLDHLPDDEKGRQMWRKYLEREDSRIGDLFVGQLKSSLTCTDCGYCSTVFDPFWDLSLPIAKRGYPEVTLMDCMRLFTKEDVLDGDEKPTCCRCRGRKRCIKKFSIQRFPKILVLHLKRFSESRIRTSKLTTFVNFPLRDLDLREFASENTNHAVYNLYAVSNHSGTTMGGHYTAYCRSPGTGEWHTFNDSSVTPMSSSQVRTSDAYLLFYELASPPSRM
The experiment in a line: Inhibition of human USP2 (258 to 605 residues) catalytic domain by fluorescence based assay.

The target of assay [6] is T1, Ubiquitin carboxyl-terminal hydrolase 7. The experiment in a line: Inhibition of human USP7 using Ub-AMC as substrate.
Assay [7] concerns the target T4, Ubiquitin carboxyl-terminal hydrolase 8 (Homo sapiens, UniProt P40818).
T4 sequence (P40818 whole entry): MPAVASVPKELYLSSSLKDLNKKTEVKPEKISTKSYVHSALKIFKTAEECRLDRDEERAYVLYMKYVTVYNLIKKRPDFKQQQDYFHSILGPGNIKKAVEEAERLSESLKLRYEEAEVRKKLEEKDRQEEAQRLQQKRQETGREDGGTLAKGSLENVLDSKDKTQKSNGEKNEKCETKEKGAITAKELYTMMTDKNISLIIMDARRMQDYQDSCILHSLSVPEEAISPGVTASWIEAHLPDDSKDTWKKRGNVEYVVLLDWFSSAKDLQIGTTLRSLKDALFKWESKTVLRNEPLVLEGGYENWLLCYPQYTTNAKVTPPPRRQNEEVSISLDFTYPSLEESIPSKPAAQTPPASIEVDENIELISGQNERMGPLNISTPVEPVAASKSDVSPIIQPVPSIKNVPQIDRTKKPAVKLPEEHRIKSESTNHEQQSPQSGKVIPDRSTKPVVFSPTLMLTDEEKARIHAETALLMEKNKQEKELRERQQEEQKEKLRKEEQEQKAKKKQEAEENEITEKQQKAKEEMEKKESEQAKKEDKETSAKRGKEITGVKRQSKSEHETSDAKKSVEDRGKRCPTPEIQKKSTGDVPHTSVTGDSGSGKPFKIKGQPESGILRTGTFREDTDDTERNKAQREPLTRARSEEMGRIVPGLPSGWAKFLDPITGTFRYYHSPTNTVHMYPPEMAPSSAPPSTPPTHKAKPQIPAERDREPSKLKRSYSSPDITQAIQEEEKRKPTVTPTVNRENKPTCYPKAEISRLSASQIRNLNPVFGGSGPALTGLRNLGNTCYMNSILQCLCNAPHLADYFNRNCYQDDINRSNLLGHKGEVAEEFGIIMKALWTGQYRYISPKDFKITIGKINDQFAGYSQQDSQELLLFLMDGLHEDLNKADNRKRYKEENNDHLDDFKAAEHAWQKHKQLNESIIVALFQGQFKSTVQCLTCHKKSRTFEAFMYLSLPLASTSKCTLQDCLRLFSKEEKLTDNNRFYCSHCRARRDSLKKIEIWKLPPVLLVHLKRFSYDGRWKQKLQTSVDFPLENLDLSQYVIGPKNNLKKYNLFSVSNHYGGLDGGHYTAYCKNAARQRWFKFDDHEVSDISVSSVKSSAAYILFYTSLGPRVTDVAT
Kind of assay: Inhibition of human USP8 using Ub-AMC as substrate.

Assay [8] deals with T5, Ubiquitin carboxyl-terminal hydrolase 47 (Homo sapiens, UniProt Q96K76).
T5 sequence (Q96K76 whole entry): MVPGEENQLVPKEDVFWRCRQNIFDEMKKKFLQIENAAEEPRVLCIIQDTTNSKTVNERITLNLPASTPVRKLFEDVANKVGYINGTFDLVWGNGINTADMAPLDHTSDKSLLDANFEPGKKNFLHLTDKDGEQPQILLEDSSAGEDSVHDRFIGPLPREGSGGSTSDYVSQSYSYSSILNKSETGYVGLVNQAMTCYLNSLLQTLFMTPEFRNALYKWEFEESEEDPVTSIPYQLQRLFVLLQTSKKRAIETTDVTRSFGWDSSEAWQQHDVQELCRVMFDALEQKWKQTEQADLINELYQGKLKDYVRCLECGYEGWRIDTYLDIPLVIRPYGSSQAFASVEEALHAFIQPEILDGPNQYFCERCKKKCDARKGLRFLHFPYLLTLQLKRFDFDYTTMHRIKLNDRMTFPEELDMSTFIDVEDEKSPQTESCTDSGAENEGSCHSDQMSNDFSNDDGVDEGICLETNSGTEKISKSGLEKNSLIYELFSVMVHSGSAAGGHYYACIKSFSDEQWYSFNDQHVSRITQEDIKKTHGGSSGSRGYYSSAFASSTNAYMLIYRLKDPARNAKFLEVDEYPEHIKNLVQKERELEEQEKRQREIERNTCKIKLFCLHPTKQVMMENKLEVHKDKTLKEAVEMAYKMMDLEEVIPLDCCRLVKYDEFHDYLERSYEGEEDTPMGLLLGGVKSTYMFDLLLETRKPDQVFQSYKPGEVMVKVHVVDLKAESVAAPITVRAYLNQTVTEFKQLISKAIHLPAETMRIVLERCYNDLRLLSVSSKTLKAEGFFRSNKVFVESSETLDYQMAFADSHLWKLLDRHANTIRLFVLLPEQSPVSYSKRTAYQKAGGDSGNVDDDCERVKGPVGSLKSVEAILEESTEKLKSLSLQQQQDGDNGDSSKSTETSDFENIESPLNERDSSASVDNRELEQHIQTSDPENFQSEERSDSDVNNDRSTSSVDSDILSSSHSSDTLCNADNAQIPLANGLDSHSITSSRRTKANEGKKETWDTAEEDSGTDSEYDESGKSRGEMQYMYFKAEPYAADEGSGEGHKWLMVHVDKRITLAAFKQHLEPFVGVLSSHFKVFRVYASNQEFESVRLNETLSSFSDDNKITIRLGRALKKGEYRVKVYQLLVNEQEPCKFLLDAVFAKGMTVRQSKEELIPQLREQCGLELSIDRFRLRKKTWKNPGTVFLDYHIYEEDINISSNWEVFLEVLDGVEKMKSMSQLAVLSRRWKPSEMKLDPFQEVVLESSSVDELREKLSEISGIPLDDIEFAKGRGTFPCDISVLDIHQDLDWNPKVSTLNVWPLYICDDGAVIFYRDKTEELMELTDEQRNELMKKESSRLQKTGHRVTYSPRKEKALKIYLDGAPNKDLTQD
Kind of assay: Inhibition of USP47 (unknown origin).

Assay [9] concerns the target T4, Ubiquitin carboxyl-terminal hydrolase 8. The experiment in a line: Inhibition of USP8 (unknown origin).
In assay [10] the test system is HCT-116. The experiment in a line: Anticancer activity against human HCT-116 cells assessed as cell growth inhibition incubated for 6 days by MTT assay. It is filed as functional. The settings on record: HCT-116, 144 h, time 6 day, read-out: LD50 (the source's name). (Tetrazolium dyes change colour on reduction, which living cells bring about.)
Assay [11] is described as follows: Inhibition of USP2a (unknown origin). The arrangement: species or system Homo sapiens.

T1 sequence (Q93009 whole entry): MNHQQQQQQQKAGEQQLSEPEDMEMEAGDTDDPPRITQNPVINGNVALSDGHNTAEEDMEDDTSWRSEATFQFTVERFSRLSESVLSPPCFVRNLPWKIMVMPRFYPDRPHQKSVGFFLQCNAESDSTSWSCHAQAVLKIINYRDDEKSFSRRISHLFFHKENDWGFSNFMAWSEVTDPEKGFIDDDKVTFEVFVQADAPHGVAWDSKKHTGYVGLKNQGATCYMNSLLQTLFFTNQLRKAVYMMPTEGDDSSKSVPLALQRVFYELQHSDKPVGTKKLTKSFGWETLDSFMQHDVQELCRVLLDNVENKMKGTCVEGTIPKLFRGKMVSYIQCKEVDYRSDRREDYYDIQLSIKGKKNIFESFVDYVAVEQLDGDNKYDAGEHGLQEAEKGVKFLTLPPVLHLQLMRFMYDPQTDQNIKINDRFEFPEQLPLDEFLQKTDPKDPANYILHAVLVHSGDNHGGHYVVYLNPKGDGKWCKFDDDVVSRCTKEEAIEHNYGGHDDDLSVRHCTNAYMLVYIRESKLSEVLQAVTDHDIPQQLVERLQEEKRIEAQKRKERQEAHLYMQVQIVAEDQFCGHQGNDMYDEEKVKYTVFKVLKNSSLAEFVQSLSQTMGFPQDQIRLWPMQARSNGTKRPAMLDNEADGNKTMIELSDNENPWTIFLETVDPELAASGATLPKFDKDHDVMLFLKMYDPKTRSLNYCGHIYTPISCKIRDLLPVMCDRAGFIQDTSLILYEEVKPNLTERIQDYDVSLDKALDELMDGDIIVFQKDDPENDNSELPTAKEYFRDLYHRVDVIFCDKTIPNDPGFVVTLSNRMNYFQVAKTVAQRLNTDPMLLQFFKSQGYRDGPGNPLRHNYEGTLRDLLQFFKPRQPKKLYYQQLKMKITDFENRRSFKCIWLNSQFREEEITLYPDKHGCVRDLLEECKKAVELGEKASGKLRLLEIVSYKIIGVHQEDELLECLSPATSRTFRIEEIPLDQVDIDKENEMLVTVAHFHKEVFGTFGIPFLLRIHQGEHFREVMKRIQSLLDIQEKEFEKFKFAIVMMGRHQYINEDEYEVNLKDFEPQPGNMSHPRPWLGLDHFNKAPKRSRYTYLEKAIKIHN

As a reminder, the IC50 is the concentration that inhibits the measured activity by half. Higher therefore signals weaker potency in that assay. Turning to `Nc1ncc(-c2ccccc2)cc1-c1ccc(O)cc1`, the IC50 in [1] stood at 9.6 µM. Take `OCCNCc1cc(Br)ccc1OCc1cc(F)c(F)cc1F`: 2 µM corresponded to half-maximal inhibition in assay [2] (IC50). In assay [3], `CCc1c(-c2ccc(O)cc2)cnc(N)c1-c1ccc(S(C)(=O)=O)cc1` yielded an IC50 greater than 63.3 µM.

On to `CCc1c(-c2cccc(NC(C)=O)c2)cnc(N)c1-c1cccs1`, for which the IC50 in [4] is greater than 63.3 µM. Compound `Sc1ncnc2nc[nH]c12` [MERCAPTOPURINE ANHYDROUS] gave an IC50 in [5] greater than 100 µM.

Take `N#Cc1nc2c(nc1C#N)-c1cc(Cl)ccc1C2=O`: the values for the IC50 in [6] and in assay [7] were 2.55 µM and 0.133 µM, respectively. In the same order, the values of `CCO/C(O)=C(\C#N)c1nc2c(nc1C#N)C(=O)c1ccccc1-2` are greater than 100 µM and greater than 100 µM.

Take `CO/C(O)=C(\C#N)c1nc2c(nc1C#N)C(=O)c1ccccc1-2`: the IC50 in assay [8] and in assay [9] was greater than 100 µM throughout. Turning to `CCc1c(-c2ccc(C(=O)N(C)C)cc2)cnc(N)c1-c1ccc(O)cc1`, the IC50 in assay [3] worked out at 75.6 µM. With `CCOc1nc2c(nc1C#N)C(=O)c1ccccc1-2`, the IC50 in assay [6] and in assay [7] was greater than 100 µM throughout. `CCc1c(-c2ccc(O)cc2)cnc(N)c1-c1cccc(C)c1`: in [3], the IC50 was greater than 63.3 µM. As for `CCc1c(-c2ccc(O)cc2)cnc(N)c1-c1ccc2cn[nH]c2c1`, half-maximal inhibition in [1] (IC50) was put at 0.61 µM.

Regarding `C[C@H](CC(=O)NO)[C@H]1CC[C@H]2[C@@H]3CC[C@@H]4C[C@H](O)CC[C@]4(C)[C@H]3CC[C@]12C`, the CC50 in assay [10] stood at 27.8 µM. For the same compound, the IC50 in [11] came to 9.7 µM.

The compound `Nc1ncc(-c2ccc(O)cc2)cc1-c1ccc(O)cc1` yielded an IC50 in assay [1] greater than 50 µM. For the compound `CC(=O)Nc1cccc(-c2cnc(N)c(-c3ccc(O)cc3)c2C)c1`, in assay [4], half-maximal inhibition (IC50) was put at 42 µM. Regarding `C[C@H](CC(=O)N1CCOCC1)[C@H]1CC[C@H]2[C@@H]3CC[C@@H]4C[C@H](O)CC[C@]4(C)[C@H]3CC[C@]12C`, the CC50 in assay [10] came out at 8.2 µM. This compound registered an IC50 in assay [11] greater than 100 µM. `Nc1nc2nc[nH]c2c(=S)[nH]1` [THIOGUANINE] registered an IC50 in assay [5] of 42 µM. In the case of `N#Cc1nc2c(nc1C#N)-c1ccc(Cl)cc1C2=O`, the IC50 came to 0.4 µM in [6], 0.4 µM in assay [8] and 0.96 µM in assay [9].
